In publication PMC11257762, “Psoralen Isolated from the Roots of Dorstenia psilurus Welw. Modulate Th1/Th2 Cytokines and Inflammatory Enzymes in LPS-Stimulated RAW 264.7 Macrophages” (Mediators of Inflammation, 2024):
Converted amounts (≈) assume the structure as drawn. Read-outs that look alike come from different tables or passages of the source. Marks after values point to notes of the source that are not given here.

Experiments:
IFN-γ = assay: Th1/Th2 cytokine measurement (cytometric bead array) in LPS-stimulated RAW 264.7 macrophages, IFN-γ; assay type: cell-based, mouse; conditions: 50 μM, 24 hr, LPS-induced RAW 264.7; reduced from 1.12 pg/mL
Procedure: (§1) RAW 264.7 cells were cultured at a concentration of 2 × 10^5 cells/mL in a 48-well microplate and allowed to adhere for 24 hr. Subsequently, they were subjected to lipopolysaccharide (LPS) treatment at a concentration of 0.1 µg/mL, along with psoralen at concentrations of 5, 20, and 50 µM. […] Following an incubation period of 24 hr, the supernatant was collected, and the levels of pro-inflammatory Th1 cytokines (IFN-γ, TNF-α, and IL-2), as well as anti-inflammatory Th2 cytokines (IL-4, IL-6, and IL-10) were quantified. The experimental protocol adhered to the manufacturer's guidelines and utilized the BD TM cytometric beads array human Th1/Th2 cytokine kit (BD-Biosciences). Data acquisition was performed using a BD LSR FortessaTM cell analyzer flow cytometer.

IL-10 = assay: Th1/Th2 cytokine measurement (cytometric bead array) in LPS-stimulated RAW 264.7 macrophages, IL-10; assay type: cell-based, mouse; conditions: 50 μM, 24 hr, LPS-induced RAW 264.7; increased from 0.857 pg/mL
Procedure: as §1

IL-6 = assay: Th1/Th2 cytokine measurement (cytometric bead array) in LPS-stimulated RAW 264.7 macrophages, IL-6; assay type: cell-based, mouse; conditions: 50 μM, 24 hr, LPS-induced RAW 264.7; increased from 156.96 pg/mL
Procedure: as §1

IL-2 = assay: Th1/Th2 cytokine measurement (cytometric bead array) in LPS-stimulated RAW 264.7 macrophages, IL-2; assay type: cell-based, mouse; conditions: 50 μM, 24 hr, LPS-induced RAW 264.7; reduced from 1.032 pg/mL
Procedure: as §1

COX-1 = target: T1, COX-1 (Mus musculus, UniProt P22437); assay: Fluorometric COX activity assay in LPS-stimulated RAW 264.7 cells, COX-1; assay type: cell-based; conditions: LPS 0.1 µg/mL, 24 hr, untreated control 95.19 µU/mg
T1 construct: endogenous in cells; host or cells: RAW 264.7 macrophages, LPS-stimulated
T1 sequence (P22437 27-602): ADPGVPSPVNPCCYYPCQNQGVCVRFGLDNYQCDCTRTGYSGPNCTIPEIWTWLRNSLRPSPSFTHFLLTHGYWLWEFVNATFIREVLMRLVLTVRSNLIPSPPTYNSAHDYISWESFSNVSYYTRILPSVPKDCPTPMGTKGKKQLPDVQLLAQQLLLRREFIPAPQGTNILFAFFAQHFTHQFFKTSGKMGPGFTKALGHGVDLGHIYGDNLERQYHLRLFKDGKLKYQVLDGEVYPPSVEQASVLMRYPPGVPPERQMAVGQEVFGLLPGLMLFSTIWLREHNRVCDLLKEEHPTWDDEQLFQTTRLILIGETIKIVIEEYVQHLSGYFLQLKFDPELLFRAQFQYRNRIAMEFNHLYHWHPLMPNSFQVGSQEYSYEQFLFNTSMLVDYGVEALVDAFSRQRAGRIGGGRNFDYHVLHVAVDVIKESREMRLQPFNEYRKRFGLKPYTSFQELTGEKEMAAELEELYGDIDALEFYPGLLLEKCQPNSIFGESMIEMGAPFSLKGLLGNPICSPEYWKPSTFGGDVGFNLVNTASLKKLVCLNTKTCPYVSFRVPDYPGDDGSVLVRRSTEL
Procedure: (§2) Evaluation of COX-1 and COX-2 enzyme activity was performed using the fluorometric COX activity assay kit provided by Biovision. RAW 264.7 cells were cultured at a density of 2 × 10^5 cells/mL in a 48-well microplate and allowed to adhere for a period of 24 hr. Subsequently, cells were treated with LPS at a concentration of 0.1 µg/mL and psoralen at concentrations of 5, 20, and 50 µM. The cyclooxygenase enzyme activity assay was performed after a 24 hr incubation period. To initiate the assay, cells were removed using TNE buffer containing Tris (40 mM), NaCl (150 mM), and EDTA (1 mM), followed by a washing step using 1x PBS. Cells were then resuspended in 1 mL of 1x PBS, transferred to a 1.5 mL tube, and subjected to centrifugation at 500x g for 3 min. The resulting pellet was resuspended in 0.5 mL of lysis buffer containing a protease inhibitor cocktail, followed by vortexing and incubation at 4°C for 5 min. Subsequently, the cell lysate was centrifuged at 12,000 x g for 3 min, and the supernatant was collected for the COX activity assay. The fluorometric cyclooxygenase activity assay kit provided by Biovision was utilized according to the manufacturer's instructions to assess COX activity. This assay incorporates specific inhibitors for COX-1 and COX-2 enzymes, allowing differentiation of their respective activities and those of other peroxidases.

TNF-α = assay: Th1/Th2 cytokine measurement (cytometric bead array) in LPS-stimulated RAW 264.7 macrophages, TNF-α; assay type: cell-based, mouse; conditions: 50 μM, 24 hr, LPS-induced RAW 264.7; reduced from 4,418.86 pg/mL
Procedure: as §1

15-LOX from G. max = target: T2, 15-LOX from G. max (Glycine max, UniProt P08170); assay: Soybean LOX inhibition assay (ferrous oxidation-xylenol orange); assay type: biochemical; conditions: linoleic acid 140 µM, pH 7.4, 25°C, mean ± SD
T2 sequence (P08170 1-839): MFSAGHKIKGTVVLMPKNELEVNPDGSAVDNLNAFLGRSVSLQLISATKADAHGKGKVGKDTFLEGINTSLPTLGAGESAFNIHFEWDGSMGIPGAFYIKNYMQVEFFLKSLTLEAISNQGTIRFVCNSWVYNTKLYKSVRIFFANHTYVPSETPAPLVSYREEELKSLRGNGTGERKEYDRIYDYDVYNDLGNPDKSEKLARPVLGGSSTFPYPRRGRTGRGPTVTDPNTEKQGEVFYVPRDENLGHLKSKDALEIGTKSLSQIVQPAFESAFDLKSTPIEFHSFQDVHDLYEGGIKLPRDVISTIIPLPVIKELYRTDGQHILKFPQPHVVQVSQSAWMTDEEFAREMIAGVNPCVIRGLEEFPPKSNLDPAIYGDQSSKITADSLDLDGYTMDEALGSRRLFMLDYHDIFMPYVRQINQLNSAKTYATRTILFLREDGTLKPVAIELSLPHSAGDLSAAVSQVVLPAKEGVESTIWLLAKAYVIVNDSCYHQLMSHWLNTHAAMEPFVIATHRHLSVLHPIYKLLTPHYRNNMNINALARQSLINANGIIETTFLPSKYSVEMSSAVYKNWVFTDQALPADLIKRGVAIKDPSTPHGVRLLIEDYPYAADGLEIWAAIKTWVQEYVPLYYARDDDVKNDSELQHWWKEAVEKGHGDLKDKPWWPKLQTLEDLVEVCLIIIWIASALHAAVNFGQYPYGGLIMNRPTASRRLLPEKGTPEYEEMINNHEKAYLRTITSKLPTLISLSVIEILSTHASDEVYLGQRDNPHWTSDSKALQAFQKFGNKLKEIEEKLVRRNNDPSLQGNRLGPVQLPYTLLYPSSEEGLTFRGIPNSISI
Procedure: The assay was conducted following a previously described methodology with minor adjustments. The assay is based on the measurement of the formation of the Fe3+/xylenol orange complex on a spectrophotometer at a wavelength of 560 nm. 15-LOX from G. max was incubated with samples or standard inhibitors at a temperature of 25°C for 5 min. The concentration ranges of the samples ranged from 200 to 1.56 µg/mL for extracts and fractions and from 100 to 0.78 µM for compounds. Subsequently, linoleic acid (at a final concentration of 140 µM) in Tris–HCl buffer (at a pH of 7.4 and a concentration of 50 mM), and the mixture was incubated at a temperature of 25°C for 20 min in the absence of light. The assay was concluded by adding 100 µL of FOX reagent, which consisted of sulfuric acid (at a concentration of 30 mM), xylenol orange (at a concentration of 100 µM), and iron (II) sulfate (at a concentration of 100 µM) in a methanol/water mixture (at a ratio of 9 : 1). For control, only the LOX solution and buffer were pipetted into the wells. The blanks (background) contained the LOX enzyme during incubation, but the substrate (linoleic acid) was added after the addition of the FOX reagent. […] The percentage inhibition was calculated using the following formula: % inhibition = ((Acontrol–Ablank)−(Asample−Ablank)/(Acontrol−Ablank)) ×100. Here, Acontrol represents the absorbance of the control well, Ablank represents the absorbance of the blank well, and Asample represents the absorbance of the sample well.

[1] = test system: NO production in LPS-activated RAW 264.7 macrophages; assay: Inhibition of nitric oxide (NO) production in LPS-activated RAW 264.7 macrophages (Griess reagent); assay type: cell-based, mouse; conditions: for IC50: Mus musculus
Procedure: The mouse-derived macrophage cell line RAW 264.7, purchased from the American Type Culture Collection (ATCC TIB-71, Rockville, MD, USA), was cultured in DMEM medium supplemented with 10% FCS and 1% penicillin/streptomycin/fungizone (PSF) under conventional cell culture conditions at a temperature of 37°C and a carbon dioxide concentration of 5% in a controlled humid atmosphere. Routine maintenance in culture (passage) was performed following ATCC instructions.
The RAW 264.7 macrophage cells were introduced into 96 well microtiter plates at a density of 2 × 10^5 cells/mL. Subsequently, cells were subjected to activation through incubation in a medium consisting of 1 µg/mL LPS alone, acting as the control. Furthermore, lipopolysaccharide was combined with varying concentrations of samples dissolved in DMSO (concentration ranges were 200–1.56 µg/mL for extracts and fractions and 100–0.78 µM for compounds). […] The quantity of nitric oxide released from macrophages was assessed using Griess reagent as previously described. All experiments for the measurement of nitric oxide inhibition were conducted three times in triplicate.

COX-2 = target: T3, COX-2 (Mus musculus, UniProt Q05769); assay: Fluorometric COX activity assay in LPS-stimulated RAW 264.7 cells, COX-2; assay type: cell-based; conditions: LPS 0.1 µg/mL, 24 hr, untreated control 113.81 µU/mg
T3 construct: the supernatant was collected for the COX activity assay; endogenous in cells; host or cells: RAW 264.7 macrophages, LPS-stimulated
T3 sequence (Q05769 18-604): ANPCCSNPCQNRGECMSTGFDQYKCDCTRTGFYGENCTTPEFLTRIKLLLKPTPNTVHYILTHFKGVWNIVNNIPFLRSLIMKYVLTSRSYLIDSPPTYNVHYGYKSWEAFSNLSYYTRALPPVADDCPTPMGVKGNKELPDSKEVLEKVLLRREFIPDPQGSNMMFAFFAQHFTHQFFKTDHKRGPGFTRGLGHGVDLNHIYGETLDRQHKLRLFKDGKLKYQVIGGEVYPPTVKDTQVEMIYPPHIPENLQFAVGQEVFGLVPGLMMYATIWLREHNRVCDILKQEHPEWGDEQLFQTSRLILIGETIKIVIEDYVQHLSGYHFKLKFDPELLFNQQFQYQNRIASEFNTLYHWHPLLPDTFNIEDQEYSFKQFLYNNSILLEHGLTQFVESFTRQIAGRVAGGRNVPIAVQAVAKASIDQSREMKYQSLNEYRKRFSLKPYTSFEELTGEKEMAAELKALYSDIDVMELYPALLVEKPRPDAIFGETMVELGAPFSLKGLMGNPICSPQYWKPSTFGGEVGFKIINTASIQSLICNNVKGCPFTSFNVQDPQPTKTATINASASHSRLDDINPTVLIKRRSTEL
Procedure: as §2

IL-4 = assay: Th1/Th2 cytokine measurement (cytometric bead array) in LPS-stimulated RAW 264.7 macrophages, IL-4; assay type: cell-based, mouse; conditions: 50 μM, 24 hr, LPS-induced RAW 264.7; increased from 0.81 pg/mL
Procedure: as §1

[2] = test system: NO production in LPS-stimulated RAW 264.7 murine macrophages; set-up: method as in Choi et al. [47]; conditions: isolated from Trachelospermum jasminoides, ref Choi et al. [47]; cited from earlier work
[3] = RAW264.7, LPS 1 µg/mL activated RAW 264.7 macrophage cells, mean ± SD, read-out: NO inhibition IC50

O=c1ccc2cc3ccoc3cc2o1 [(1), psoralen]
IFN-γ level (IFN-γ): 0.56 pg/mL | IL-10 level (IL-10): 1.122 pg/mL | IL-6 level (IL-6): 255.31 pg/mL | IL-2 level (IL-2): 0.551 pg/mL | COX-1 activity (COX-1; psoralen 5 μM): 44.35 µU/mg | COX-1 activity (COX-1; psoralen 20 μM): 31.25 µU/mg | COX-1 activity (COX-1; psoralen 50 μM): 22.73 µU/mg | TNF-α level (TNF-α): 1,032.66 pg/mL | IC50 (15-LOX from G. max): 18.4 µM | IC50 [1, 3]: 1.19 ± 0.45 µg/mL (≈ 6.39 µM) | COX-2 activity (COX-2; psoralen 5 μM): 88.33 µU/mg | COX-2 activity (COX-2; psoralen 20 μM): 58.1 µU/mg | COX-2 activity (COX-2; psoralen 50 μM): 43.84 µU/mg | IL-4 level (IL-4): 2.22 pg/mL

CC[C@H](CC[C@@H](C)[C@H]1CC[C@H]2[C@@H]3CC=C4C[C@@H](O[C@@H]5O[C@H](CO)[C@@H](O)[C@H](O)[C@H]5O)CC[C@]4(C)[C@H]3CC[C@]12C)C(C)C [(3), β-sitosterol glucoside]
IC50 (15-LOX from G. max): 25.3 µM | IC50 [1, 3]: 26.1 ± 3.01 µg/mL (≈ 45.3 µM) | Reduction of NO production [2]: 72.8%

COc1ccc2c(c1)c(CC(=O)O)c(C)n2C(=O)c1ccc(Cl)cc1 [Indomethacin, indomethacin, reference compound]
IC50 ([1]; RAW264.7, read-out: NO inhibition IC50): 3.79 ± 0.88 µg/mL (≈ 10.6 µM)

octadecanyl-3[4-hydroxyphenyl]-prop-2-enoate [(2)]
15-LOX inhibition IC50 (15-LOX from G. max): 35.57 ± 2.35^j μg/mL | NO inhibition IC50 ([1]; LPS 1 µg/mL activated RAW 264.7 macrophage cells, mean ± SD): 39.41 ± 2.29^g μg/mL
